Experimental data reported in US10206908B2, “3-(1H-pyrrolo[3,2-C]pyridin-2-YL)-1H-pyrazolo[3,4-C]pyridines and therapeutic uses thereof” (Samumed, LLC, priority 2015, dated 2019).

Columns and labels:
Format in all cases: cell-based
[1] = tested on: primary human fibroblasts derived from IPF patients (LL29 cells) treated with TGF-β1; test: Inhibition of the fibrotic process: αSMA staining in TGF-β1 treated LL29 fibroblasts; conditions: Fibroblast; for EC50: 96 h, % αSMA positive LL29 cells, TGF-β1 20 ng/mL, 4 days; for inhibition at 10 µM: read-out: percent inhibition at 10 μM
How it was run: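 Read-out after 4-day incubation: αSMA staining with 1 μM SYTOX green nuclear counterstain (30 min, room temperature). Cells were LL29 primary fibroblasts from IPF patients, in 1% FBS F12, exposed to TGF-β1 with test compound, referenced to TGF-β1/DMSO control wells.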

[2] = tested on: IL-6 (THP-1 cells); test: IL-6 inhibition in LPS-stimulated THP-1 monocytes (HTRF); conditions: Homo sapiens; for inhibition at 10 µM: THP-1, read-out: percent inhibition at 10 μM; for EC50: IL-6, THP-1 cells, LPS 500 ng/mL, 22 hours
How it was run: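 THP-1 cells kept 24 h in 1% FBS medium, exposed to compound 2 h at 37 °C, then stimulated with 500 ng/mL LPS for 22 h. Secreted IL-6 quantified by HTRF (665/620 nm ratio), duplicates. Values normalized to DMSO; EC50 by four-parameter variable-slope regression.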

[3] = tested on: Wnt activity (Sp5-Luc reporter, SW480 colon carcinoma cells); test: Screening assay for Wnt activity: Sp5-Luc reporter gene assay in SW480 colon carcinoma cells; conditions: Homo sapiens; for EC50: Sp5-Luc reporter, SW480 cells, overnight incubation; for inhibition at 10 µM: SW480, read-out: percent inhibition at 10 μM
How it was run: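 SW480 colon carcinoma cells stably carrying Sp5 promoter (eight TCF/LEF sites)-driven firefly luciferase, plated at 4,000 cells/well in 1% FBS medium and incubated overnight at 37° C. Luminescence normalised to DMSO-only cells; EC50 from four-parameter variable-slope nonlinear regression.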

[4] = tested on: primary human mesenchymal stem cells (hMSCs); test: Induction of chondrogenesis in hMSCs (chondrogenic nodules, Rhodamine B/Nile Red); conditions: 6 days; for EC50: concentration required to induce 50% levels of chondrogenesis vs TGF-β3, read-out: Conc (nM) of 50% TGF-β3 activity; for Emax: relative to TGF-β3 (10 ng/mL) positive control, read-out: Max. Activity as % TGF-β3 activity
Text: Representative compounds were screened using primary human mesenchymal stem cells (hMSCs) to determine their ability to induce chondrogenesis (process by which cartilage is developed).
Human Mesenchymal Stem Cell Culture: Primary human mesenchymal stem cells (hMSCs) were purchased from Lonza (Walkersville, Md.) and expanded in Mesenchymal Stem Cell Growth Media (Lonza). Cells between passage 3 and 6 were used for the experiments.
Number of nodules in each well was normalized to the average of 3 DMSO treated wells on the same plate using Excel (Microsoft Inc.). The normalized averages (fold change over DMSO) of 3 replicate wells for each compound concentration were calculated. Due to solubility limitations of some of the compounds, curve fitting was incomplete leading to inaccurate EC50 determinations.
Using TGF-β3 as a positive control, the concentration of representative compounds required to induce 50% levels of chondrogenesis is reported. In addition, the maximum activity of each compound and the respective dose that each compound reached maximum chondrogenesis activity is reported.

[5] = tested on: SW480 colon cancer cells; test: Cell viability assay (CellTiter-Blue) in SW480 colon cancer cells; conditions: Homo sapiens; for EC50: 96 h, SW480 cell viability, four days; for inhibition at 10 µM: SW480, read-out: percent inhibition at 10 μM
How it was run: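 Fluorescence from resazurin reduced to resorufin by metabolically active cells was the read-out, taken after ~3 h with CellTiter-Blue.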

SMILES	EC50 [2] [µM]	EC50 [3] [µM]	EC50 [4] [nM]	EC50 [5] [µM]	EC50 [1] [µM]	inhibition at 10 µM [2] [%]	Emax [4] [%]	inhibition at 10 µM [5] [%]	inhibition at 10 µM [1] [%]	inhibition at 10 µM [3] [%]
CN(C)c1cncc(-c2cc3c(-c4cc5c(-c6cccs6)nccc5[nH]4)n[nH]c3cn2)c1 [Compound 343, N,N-Dimethyl-5-(3-(4-(thiophen-2-yl)-1H-pyrrolo[3,2-c]pyridin-2-yl)-1H-pyrazolo[3,4-c]pyridin-5-yl)pyridin-3-amine]	> 10	1.49	300	0.611	0.694	0	51			
CC(C)C(=O)Nc1cncc(-c2cc3c(-c4cc5c(-c6cc(F)cc(CNS(C)(=O)=O)c6)nccc5[nH]4)n[nH]c3cn2)c1 [Compound 485, N-(5-(3-(4-(3-Fluoro-5-(methylsulfonamidomethyl)phenyl)-1H-pyrrolo[3,2-c]pyridin-2-yl)-1H-pyrazolo[3,4-c]pyridin-5-yl)pyridin-3-yl)isobutyramide]	> 10	> 10	30	> 10	> 10	47.8	80	10.5	0	43.9
CCCCC(=O)Nc1cncc(-c2cc3c(-c4cc5c(-c6cc(F)cc(CNS(C)(=O)=O)c6)nccc5[nH]4)n[nH]c3cn2)c1 [Compound 495, N-(5-(3-(4-(3-Fluoro-5-(methylsulfonamidomethyl)phenyl)-1H-pyrrolo[3,2-c]pyridin-2-yl)-1H-pyrazolo[3,4-c]pyridin-5-yl)pyridin-3-yl)pentanamide]	> 10	> 10	10	> 10	> 10	34.8	111	0	3.3	29.6
CS(=O)(=O)NCc1cc(F)cc(-c2nccc3[nH]c(-c4n[nH]c5cnc(-c6cncc(CNCC7CCCC7)c6)cc45)cc23)c1 [Compound 501, N-(3-(2-(5-(5-(((Cyclopentylmethyl)amino)methyl)pyridin-3-yl)-1H-pyrazolo[3,4-c]pyridin-3-yl)-1H-pyrrolo[3,2-c]pyridin-4-yl)-5-fluorobenzyl)methanesulfonamide]	3.42	> 10	30	> 10	> 10		52	23	41.7	49.3
CN(C)CCOc1cncc(-c2cc3c(-c4cc5c(-c6ccc(F)cc6)nccc5[nH]4)n[nH]c3cn2)c1 [Compound 531, 2-((5-(3-(4-(4-Fluorophenyl)-1H-pyrrolo[3,2-c]pyridin-2-yl)-1H-pyrazolo[3,4-c]pyridin-5-yl)pyridin-3-yl)oxy)-N,N-dimethylethan-1-amine]	3.5	3.2	900	3.59	0.92		113			
Fc1ccccc1-c1nccc2[nH]c(-c3n[nH]c4cnc(-c5cn[nH]c5)cc34)cc12 [Compound 539, 3-(4-(2-Fluorophenyl)-1H-pyrrolo[3,2-c]pyridin-2-yl)-5-(1H-pyrazol-4-yl)-1H-pyrazolo[3,4-c]pyridine]	0.393	0.03	10	> 10	0.076		89	44.4		
Oc1cncc(-c2cc3c(-c4cc5c(-c6cccs6)nccc5[nH]4)n[nH]c3cn2)c1 [Compound 709, 5-(3-(4-(Thiophen-2-yl)-1H-pyrrolo[3,2-c]pyridin-2-yl)-1H-pyrazolo[3,4-c]pyridin-5-yl)pyridin-3-ol]	3.19	1.01	10	6.35	0.34		83			
CS(=O)(=O)NCc1cc(F)cc(-c2nccc3[nH]c(-c4n[nH]c5cnc(-c6cncc(OCc7ccccc7)c6)cc45)cc23)c1 [Compound 774, N-(3-(2-(5-(5-(Benzyloxy)pyridin-3-yl)-1H-pyrazolo[3,4-c]pyridin-3-yl)-1H-pyrrolo[3,2-c]pyridin-4-yl)-5-fluorobenzyl)methanesulfonamide]	1.1	1.51	300	2.45	0.363		115			

Now from value to molecule, other results behind:

EC50 [2] [µM]	EC50 [3] [µM]	EC50 [4] [nM]	EC50 [5] [µM]	SMILES	EC50 [1] [µM]	inhibition at 10 µM [2] [%]	Emax [4] [%]	inhibition at 10 µM [5] [%]	inhibition at 10 µM [1] [%]	inhibition at 10 µM [3] [%]
> 10	1.54	30	> 10	O=C(Nc1cncc(-c2cc3c(-c4cc5cnccc5[nH]4)n[nH]c3cn2)c1)C1CC1 [Compound 272, N-(5-(3-(1H-Pyrrolo[3,2-c]pyridin-2-yl)-1H-pyrazolo[3,4-c]pyridin-5-yl)pyridin-3-yl)cyclopropanecarboxamide]	1.9	9.6	58	18.6		
2.69	1.62	30	5.2	O=C(Nc1cncc(-c2cc3c(-c4cc5cnccc5[nH]4)n[nH]c3cn2)c1)C1CCCCC1 [Compound 275, N-(5-(3-(1H-Pyrrolo[3,2-c]pyridin-2-yl)-1H-pyrazolo[3,4-c]pyridin-5-yl)pyridin-3-yl)cyclohexanecarboxamide]	1.88		59			
0.449	0.572	10	0.44	CC(C)CC(=O)Nc1cncc(-c2cc3c(-c4cc5c(-c6cccs6)nccc5[nH]4)n[nH]c3cn2)c1 [Compound 338, 3-Methyl-N-(5-(3-(4-(thiophen-2-yl)-1H-pyrrolo[3,2-c]pyridin-2-yl)-1H-pyrazolo[3,4-c]pyridin-5-yl)pyridin-3-yl)butanamide]	0.155		81			
> 10	3.65	10	2.4	c1csc(-c2nccc3[nH]c(-c4n[nH]c5cnc(-c6cncc(CN7CCCCC7)c6)cc45)cc23)c1 [Compound 351, 5-(5-(Piperidin-1-ylmethyl)pyridin-3-yl)-3-(4-(thiophen-2-yl)-1H-pyrrolo[3,2-c]pyridin-2-yl)-1H-pyrazolo[3,4-c]pyridine]	1.99	0	59			
> 10	> 10		> 10	CS(=O)(=O)NCc1cc(F)cc(-c2nccc3[nH]c(-c4n[nH]c5cnc(-c6cncc(NC(=O)C7CCC7)c6)cc45)cc23)c1 [Compound 497, N-(5-(3-(4-(3-Fluoro-5-(methylsulfonamidomethyl)phenyl)-1H-pyrrolo[3,2-c]pyridin-2-yl)-1H-pyrazolo[3,4-c]pyridin-5-yl)pyridin-3-yl)cyclobutanecarboxamide]	> 10	38.8	16	12.8	0	27.2
